Laboratory results as given in paper PMC5218480 (PLoS ONE, 2017).

System: MV-4-11 cells
Experiment: Gene expression microarray analysis (Affymetrix PrimeView) and GSEA
Assay type: cell-based, human
Parameters: RFU PODN (11730768_x_at) / Fold change /veh PODN (11730768_x_at) / RFU LINC00158 (11744669_a_at) / Fold change /veh LINC00158 (11744669_a_at) / RFU DUSP10 (11751237_a_at) / Fold change /veh DUSP10 (11751237_a_at) / RFU ID3 (11757404_x_at) / Fold change /veh ID3 (11757404_x_at) / RFU PLEKHG5 (11737974_s_at) / Fold change /veh PLEKHG5 (11737974_s_at) / RFU LRRC4B (11730491_at) / Fold change /veh LRRC4B (11730491_at) / RFU GIMAP4 (11747438_a_at) / Fold change /veh GIMAP4 (11747438_a_at) / RFU KRT8 (11758183_x_at) / Fold change /veh KRT8 (11758183_x_at) / RFU CNN1 (11734310_a_at) / Fold change /veh CNN1 (11734310_a_at) / RFU VPS37D (11726825_at) / Fold change /veh VPS37D (11726825_at) / RFU C10orf10 (11716522_x_at) / Fold change /veh C10orf10 (11716522_x_at) / RFU KIR2DL2 /// KIR2DL4 /// KIR2DL5A /// KIR2DL5B /// KIR2DS1 /// KIR2DS2 /// KIR2DS3 /// KIR2DS4 /// KIR3DL3 /// KIR3DL3 /// KIR3DS1 (11738374_at) / Fold change /veh KIR2DL2 /// KIR2DL4 /// KIR2DL5A /// KIR2DL5B /// KIR2DS1 /// KIR2DS2 /// KIR2DS3 /// KIR2DS4 /// KIR3DL3 /// KIR3DL3 /// KIR3DS1 (11738374_at) / RFU C1QL1 (11718748_at) / Fold change /veh C1QL1 (11718748_at) / RFU TMPRSS4 (11747572_a_at) / Fold change /veh TMPRSS4 (11747572_a_at) / RFU HAMP (11756126_x_at) / Fold change /veh HAMP (11756126_x_at) / RFU RNFT2 (11725882_a_at) / Fold change /veh RNFT2 (11725882_a_at) / RFU NR4A2 (11747474_a_at) / Fold change /veh NR4A2 (11747474_a_at) / RFU ABCC12 (11746883_a_at) / Fold change /veh ABCC12 (11746883_a_at) / RFU TMEM136 (11760407_x_at) / Fold change /veh TMEM136 (11760407_x_at) / RFU CLDN22 /// WWC2 (11732394_at) / Fold change /veh CLDN22 /// WWC2 (11732394_at) / RFU HLA-DPB1 (11760878_x_at) / Fold change /veh HLA-DPB1 (11760878_x_at) / RFU SPINT1 (11716480_a_at) / Fold change /veh SPINT1 (11716480_a_at) / RFU GAP43 (11754022_s_at) / Fold change /veh GAP43 (11754022_s_at) / RFU A4GNT (11735810_at) / Fold change /veh A4GNT (11735810_at) / RFU PRB3 (11715151_x_at) / Fold change /veh PRB3 (11715151_x_at) / RFU TUBB4B (11761932_at) / Fold change /veh TUBB4B (11761932_at) / RFU CAPN14 (11732068_a_at) / Fold change /veh CAPN14 (11732068_a_at) / RFU TMCC2 (11721928_a_at) / Fold change /veh TMCC2 (11721928_a_at) / RFU IRGQ (11745062_a_at) / Fold change /veh IRGQ (11745062_a_at) / RFU FAM174B (11720279_a_at) / Fold change /veh FAM174B (11720279_a_at) / RFU TMPRSS4 (11748680_a_at) / Fold change /veh TMPRSS4 (11748680_a_at) / RFU FAM212B (11763350_a_at) / Fold change /veh FAM212B (11763350_a_at) / RFU PLEKHG5 (11743358_a_at) / Fold change /veh PLEKHG5 (11743358_a_at) / RFU ZSCAN30 (11745921_a_at) / Fold change /veh ZSCAN30 (11745921_a_at) / RFU CMKLR1 (11741424_a_at) / Fold change /veh CMKLR1 (11741424_a_at) / RFU LOC101060620 /// MAPK8IP1 (11723275_at) / Fold change /veh LOC101060620 /// MAPK8IP1 (11723275_at) / RFU SPTSSB (11747773_x_at) / Fold change /veh SPTSSB (11747773_x_at) / RFU PRSS12 (11739890_at) / Fold change /veh PRSS12 (11739890_at) / RFU BIN1 (11741810_x_at) / Fold change /veh BIN1 (11741810_x_at) / RFU WNT11 (11732464_a_at) / Fold change /veh WNT11 (11732464_a_at) / RFU C10orf10 (11716521_a_at) / Fold change /veh C10orf10 (11716521_a_at) / RFU C5orf56 (11738089_at) / Fold change /veh C5orf56 (11738089_at) / RFU CYB561 (11721691_x_at) / Fold change /veh CYB561 (11721691_x_at) / RFU ANKRD19P (11752326_a_at) / Fold change /veh ANKRD19P (11752326_a_at) / RFU OR2T12 /// OR2T33 /// OR2T8 (11738714_s_at) / Fold change /veh OR2T12 /// OR2T33 /// OR2T8 (11738714_s_at) / RFU VCAN (11748164_a_at) / Fold change /veh VCAN (11748164_a_at) / RFU JSRP1 (11732532_at) / Fold change /veh JSRP1 (11732532_at) / RFU KRTAP10-11 (11738290_x_at) / Fold change /veh KRTAP10-11 (11738290_x_at) / RFU MYO3A (11730013_a_at) / Fold change /veh MYO3A (11730013_a_at) / RFU EBF3 (11725865_a_at) / Fold change /veh EBF3 (11725865_a_at) / RFU CAMK2N1 (11719241_x_at) / Fold change /veh CAMK2N1 (11719241_x_at) / RFU C5orf56 (11738088_a_at) / Fold change /veh C5orf56 (11738088_a_at) / RFU OLFML3 (11715873_a_at) / Fold change /veh OLFML3 (11715873_a_at) / RFU LOC100653217 /// NTM (11731650_a_at) / Fold change /veh LOC100653217 /// NTM (11731650_a_at) / RFU MAPK11 (11762145_a_at) / Fold change /veh MAPK11 (11762145_a_at) / RFU FIZ1 (11724087_x_at) / Fold change /veh FIZ1 (11724087_x_at) / RFU OASL (11726364_x_at) / Fold change /veh OASL (11726364_x_at) / RFU SOX15 (11748057_x_at) / Fold change /veh SOX15 (11748057_x_at) / RFU CD79A (11719716_a_at) / Fold change /veh CD79A (11719716_a_at) / RFU HIST1H1D (11736915_at) / Fold change /veh HIST1H1D (11736915_at) / RFU CASKIN2 (11723855_a_at) / Fold change /veh CASKIN2 (11723855_a_at) / RFU LOC730098 (11760151_x_at) / Fold change /veh LOC730098 (11760151_x_at) / RFU OR4N2 (11742367_at) / Fold change /veh OR4N2 (11742367_at) / RFU PRRT2 (11749266_a_at) / Fold change /veh PRRT2 (11749266_a_at) / RFU SNX32 (11753110_a_at) / Fold change /veh SNX32 (11753110_a_at) / RFU CDHR5 (11726645_a_at) / Fold change /veh CDHR5 (11726645_a_at) / RFU RCAN1 (11760418_a_at) / Fold change /veh RCAN1 (11760418_a_at) / RFU FAM167A (11723789_a_at) / Fold change /veh FAM167A (11723789_a_at) / RFU FAM26E (11764081_at) / Fold change /veh FAM26E (11764081_at) / RFU ISYNA1 (11749810_s_at) / Fold change /veh ISYNA1 (11749810_s_at) / RFU ACY1 (11761880_at) / Fold change /veh ACY1 (11761880_at) / RFU 11764098_at / Fold change /veh 11764098_at / RFU SAMD14 (11745864_x_at) / Fold change /veh SAMD14 (11745864_x_at) / RFU NPB (11741838_a_at) / Fold change /veh NPB (11741838_a_at) / RFU TMPRSS6 (11731388_a_at) / Fold change /veh TMPRSS6 (11731388_a_at) / RFU KRTAP10-2 (11738614_at) / Fold change /veh KRTAP10-2 (11738614_at) / RFU ARHGAP8 /// PRR5-ARHGAP8 (11727945_x_at) / Fold change /veh ARHGAP8 /// PRR5-ARHGAP8 (11727945_x_at) / RFU KRTAP5-7 /// NADSYN1 (11734609_at) / Fold change /veh KRTAP5-7 /// NADSYN1 (11734609_at) / RFU RASL12 (11751679_a_at) / Fold change /veh RASL12 (11751679_a_at) / RFU CDKN2B (11736163_a_at) / Fold change /veh CDKN2B (11736163_a_at) / RFU PRF1 (11729649_at) / Fold change /veh PRF1 (11729649_at) / RFU, ZNF638 /// ZNF638-IT1 / Fold change vs veh, ZNF638 /// ZNF638-IT1 / RFU, PANK3 / Fold change vs veh, PANK3 / RFU, SH3YL1 / Fold change vs veh, SH3YL1 / RFU, ZEB2 / Fold change vs veh, ZEB2 / RFU, NRIP1 / Fold change vs veh, NRIP1 / RFU, PTTG1IP / Fold change vs veh, PTTG1IP / RFU, CAPN2 / Fold change vs veh, CAPN2 / RFU, MED14 / Fold change vs veh, MED14 / RFU, SNORA58 / Fold change vs veh, SNORA58 / RFU, C1orf63 / Fold change vs veh, C1orf63 / RFU, LRRFIP1 / Fold change vs veh, LRRFIP1 / RFU, NDUFAF7 / Fold change vs veh, NDUFAF7 / RFU, SLC12A2 / Fold change vs veh, SLC12A2 / RFU, IBTK / Fold change vs veh, IBTK / RFU, ESF1 / Fold change vs veh, ESF1 / Fold change vs veh, TMEM50B / RFU, TAOK1 / Fold change vs veh, TAOK1 / RFU, ACBD3 / Fold change vs veh, ACBD3 / RFU, TMA16 / Fold change vs veh, TMA16 / RFU, RWDD3 / Fold change vs veh, RWDD3 / RFU, BCAT1 / Fold change vs veh, BCAT1 / RFU, EDEM3 / Fold change vs veh, EDEM3 / RFU, TMEM33 / Fold change vs veh, TMEM33 / RFU, WDR75 / Fold change vs veh, WDR75 / RFU, AHCTF1 / Fold change vs veh, AHCTF1 / RFU, TFRC / Fold change vs veh, TFRC / RFU, ZDHHC17 / Fold change vs veh, ZDHHC17 / RFU, NOM1 / Fold change vs veh, NOM1 / RFU, ARL8B / Fold change vs veh, ARL8B / RFU, ZBTB11 / Fold change vs veh, ZBTB11 / RFU, TAMM41 / Fold change vs veh, TAMM41 / RFU, KIAA1704 /// LOC100996395 / Fold change vs veh, KIAA1704 /// LOC100996395 / RFU, ING1 / Fold change vs veh, ING1 / RFU, TRMT61B / Fold change vs veh, TRMT61B / RFU, FUBP3 / Fold change vs veh, FUBP3 / RFU, TP53 / Fold change vs veh, TP53 / RFU, TNKS2 / Fold change vs veh, TNKS2 / RFU, ZFP14 / Fold change vs veh, ZFP14 / RFU, ACTR2 / Fold change vs veh, ACTR2 / RFU, PPP3R1 / Fold change vs veh, PPP3R1 / RFU, PIK3R1 / Fold change vs veh, PIK3R1 / RFU, HNRNPA1 / Fold change vs veh, HNRNPA1 / RFU, RNF170 / Fold change vs veh, RNF170 / RFU, ZNF28 / Fold change vs veh, ZNF28 / RFU, RNGTT / Fold change vs veh, RNGTT / RFU, OGT / Fold change vs veh, OGT / RFU, BRD1 / Fold change vs veh, BRD1 / RFU, MARS / Fold change vs veh, MARS / RFU, ZNF655 / Fold change vs veh, ZNF655 / RFU, FAHD1 / Fold change vs veh, FAHD1 / RFU, BDP1 / Fold change vs veh, BDP1 / RFU, LRRCC1 / Fold change vs veh, LRRCC1 / RFU, ARID1A / Fold change vs veh, ARID1A / RFU, ZNF146 / Fold change vs veh, ZNF146 / RFU, ZNF330 / Fold change vs veh, ZNF330 / RFU, GPN3 / Fold change vs veh, GPN3 / RFU, C9orf123 / Fold change vs veh, C9orf123 / RFU, N4BP2L2 / Fold change vs veh, N4BP2L2 / RFU, ARFIP1 / Fold change vs veh, ARFIP1 / RFU, FAM179B / Fold change vs veh, FAM179B / RFU, BCL10 / Fold change vs veh, BCL10 / RFU, UHRF1BP1L / Fold change vs veh, UHRF1BP1L / RFU, BET1 / Fold change vs veh, BET1 / RFU, CNOT2 / Fold change vs veh, CNOT2 / RFU, ZNF268 / Fold change vs veh, ZNF268 / Fold change vs veh, ZNF507 / RFU, DGCR2 / Fold change vs veh, DGCR2 / RFU, WDSUB1 / Fold change vs veh, WDSUB1 / Fold change vs veh, HSP90B1 /// MIR3652 / RFU, ADSS / Fold change vs veh, ADSS / RFU, GK / Fold change vs veh, GK / RFU, ZNF148 / Fold change vs veh, ZNF148 / RFU, TAF9 / Fold change vs veh, TAF9 / RFU, SLC1A5 / Fold change vs veh, SLC1A5 / RFU, SLMO2 / Fold change vs veh, SLMO2 / RFU, ABCC4 / Fold change vs veh, ABCC4 / RFU, LOC101060439 /// RAP1B / Fold change vs veh, LOC101060439 /// RAP1B / RFU, RFX7 / Fold change vs veh, RFX7 / RFU, GTPBP10 / Fold change vs veh, GTPBP10 / RFU, CNEP1R1 / Fold change vs veh, CNEP1R1 / RFU, BIVM-ERCC5 /// ERCC5 / Fold change vs veh, BIVM-ERCC5 /// ERCC5 / RFU, ILF3 / Fold change vs veh, ILF3 / RFU 11762660_at / Fold change /veh 11762660_at / RFU VCAN (11757783_s_at) / Fold change /veh VCAN (11757783_s_at) / RFU DDX43 (11728927_at) / Fold change /veh DDX43 (11728927_at) / RFU KRT8 (11758188_x_at) / Fold change /veh KRT8 (11758188_x_at) / RFU NKD1 (11759106_at) / Fold change /veh NKD1 (11759106_at) / RFU SRD5A1 (11742802_a_at) / Fold change /veh SRD5A1 (11742802_a_at) / RFU TPSAB1 /// TPSB2 (11721975_s_at) / Fold change /veh TPSAB1 /// TPSB2 (11721975_s_at) / RFU GSTM3 (11746129_a_at) / Fold change /veh GSTM3 (11746129_a_at) / RFU IL23R (11737362_x_at) / Fold change /veh IL23R (11737362_x_at) / RFU TMEM51 (11727254_a_at) / Fold change /veh TMEM51 (11727254_a_at) / RFU PIWIL2 (11732686_x_at) / Fold change /veh PIWIL2 (11732686_x_at) / RFU ORM1 (11744905_x_at) / Fold change /veh ORM1 (11744905_x_at) / RFU CCDC152 (11743942_at) / Fold change /veh CCDC152 (11743942_at) / RFU ECM1 (11717891_a_at) / Fold change /veh ECM1 (11717891_a_at) / RFU IL23R (11748794_a_at) / Fold change /veh IL23R (11748794_a_at) / RFU TNFAIP8L3 (11732012_x_at) / Fold change /veh TNFAIP8L3 (11732012_x_at) / RFU MBOAT4 (11741988_at) / Fold change /veh MBOAT4 (11741988_at) / RFU 11764193_at / Fold change /veh 11764193_at / RFU TMEM53 (11763286_at) / Fold change /veh TMEM53 (11763286_at) / RFU MAGEB2 (11727129_at) / Fold change /veh MAGEB2 (11727129_at) / RFU TMEM200A (11744735_a_at) / Fold change /veh TMEM200A (11744735_a_at) / RFU CCDC152 (11751479_a_at) / Fold change /veh CCDC152 (11751479_a_at) / RFU FAM211A (11726209_a_at) / Fold change /veh FAM211A (11726209_a_at) / RFU RGS16 (11746705_a_at) / Fold change /veh RGS16 (11746705_a_at) / RFU VCAN (11755009_s_at) / Fold change /veh VCAN (11755009_s_at) / RFU RHOB (11743442_s_at) / Fold change /veh RHOB (11743442_s_at) / RFU RGS16 (11720943_a_at) / Fold change /veh RGS16 (11720943_a_at) / RFU RGS16 (11720944_at) / Fold change /veh RGS16 (11720944_at) / RFU, VPS4B / Fold change vs veh, VPS4B / RFU, CREB1 / Fold change vs veh, CREB1 / RFU, DNAJC13 / Fold change vs veh, DNAJC13 / RFU, GNAQ / Fold change vs veh, GNAQ / RFU, CDK5R1 / Fold change vs veh, CDK5R1 / RFU, ZRANB3 / Fold change vs veh, ZRANB3 / RFU, CUL4A / Fold change vs veh, CUL4A / RFU, CCNY / Fold change vs veh, CCNY / RFU, UFL1 / Fold change vs veh, UFL1 / RFU, COG3 / Fold change vs veh, COG3 / RFU, DIAPH2 / Fold change vs veh, DIAPH2 / RFU, SKA2 / Fold change vs veh, SKA2 / RFU, AFF3 / Fold change vs veh, AFF3 / RFU, LMF1 / Fold change vs veh, LMF1 / RFU, IPO11 / Fold change vs veh, IPO11 / RFU, DFFB / Fold change vs veh, DFFB / RFU, FOXP1 / Fold change vs veh, FOXP1 / RFU, CARD8 / Fold change vs veh, CARD8 / RFU, STRN3 / Fold change vs veh, STRN3 / RFU, ADK / Fold change vs veh, ADK / RFU, RASSF2 / Fold change vs veh, RASSF2 / RFU, WIPF1 / Fold change vs veh, WIPF1 / RFU, LARP1B / Fold change vs veh, LARP1B / RFU, RASA1 / Fold change vs veh, RASA1 / RFU, RB1 / Fold change vs veh, RB1 / RFU, PPFIA1 / Fold change vs veh, PPFIA1 / RFU, MAT2A / Fold change vs veh, MAT2A / RFU, CCT5 / Fold change vs veh, CCT5 / RFU, WDR92 / Fold change vs veh, WDR92 / RFU, CUX1 / Fold change vs veh, CUX1 / RFU, TTC7A / Fold change vs veh, TTC7A / RFU, TMEM135 / Fold change vs veh, TMEM135 / RFU, DEPTOR / Fold change vs veh, DEPTOR / RFU, CPM / Fold change vs veh, CPM / RFU, DNAJB6 / Fold change vs veh, DNAJB6 / RFU, CACNA2D3 / Fold change vs veh, CACNA2D3 / RFU, DTX4 / Fold change vs veh, DTX4 / RFU, TFCP2 / Fold change vs veh, TFCP2 / RFU, GMCL1 /// GMCL1P1 / Fold change vs veh, GMCL1 /// GMCL1P1 / RFU, AEBP2 / Fold change vs veh, AEBP2 / RFU, SNHG1 /// SNORD22 /// SNORD25 /// SNORD26 /// SNORD27 /// SNORD28 /// SNORD29 /// SNORD31 / Fold change vs veh, SNHG1 /// SNORD22 /// SNORD25 /// SNORD26 /// SNORD27 /// SNORD28 /// SNORD29 /// SNORD31 / Fold change (Aza/veh), C12orf56 (ProbeSet 11735607_a_at) / Fold change (ACY-1035/veh), C12orf56 (ProbeSet 11735607_a_at) / Fold change (Aza/veh), FGFR1OP (ProbeSet 11751329_s_at) / Fold change (ACY-1035/veh), FGFR1OP (ProbeSet 11751329_s_at) / Fold change (Aza/veh), VPS36 (ProbeSet 11739960_a_at) / Fold change (ACY-1035/veh), VPS36 (ProbeSet 11739960_a_at) / RFU SYPL1 (11715823_x_at) / Fold change /veh SYPL1 (11715823_x_at) / RFU IGFBP7 (11715501_s_at) / Fold change /veh IGFBP7 (11715501_s_at) / RFU REEP3 (11722064_at) / Fold change /veh REEP3 (11722064_at) / RFU IGLL1 (11728026_x_at) / Fold change /veh IGLL1 (11728026_x_at): dose or concentration left out as unconfirmed
Conditions: MV-4-11 cells, 48 hours

Q: `Nc1ncn([C@@H]2O[C@H](CO)[C@@H](O)[C@H]2O)c(=O)n1` [azacitidine] was tested. Which “RFU CNN1 (11734310_a_at)” value did it give?
A: The value was 25.48 RFU.
